Measured values taken from patent publication US6479509B1, “Method of promoting smoking cessation” (priority 2000, dated 2002).
Marks after values point to notes of the source that are not given here.

Tests used:
[1] = test system: nicotine-induced motor impairment; test: Blockade of nicotine-induced motor impairment, rotarod test; format: in vivo, mice; conditions: without nicotine
Description: Motor Coordination. To measure motor coordination, a wooden rod 6 cm in diameter was partitioned into three compartments by circular metal discs (28 cm in diameter) at 18-cm intervals. The rod was attached to a motor and rotated at a rate of 4 rpm. Naive mice were trained until they could remain on the rotarod for 3 min. […] This training took place no longer than 15 min before the s.c. administration of nicotine. Twenty minutes after the injection, mice were placed on the rotarod for 5 min. The amount of time the animals remained on the rotarod was recorded and percent impairment was calculated as % Impairment=[(]-(test time in s/300))×100]. An impairment value of 0% corresponds to the subjects that remained on the rotarod for 5 min (300 s), whereas 100% impairment corresponds to subjects, that fell off the rotarod immediately.
(§1) Data were analyzed statistically by an analysis of variance followed by the Fisher's P least-significant difference multiple comparison test. The null hypothesis was rejected at the […].

[2] = test system: nicotine-induced seizures; test: Nicotine-induced seizure activity; format: in vivo, mice
Description: Seizure Activity. Following s.c. injection of nicotine at a dose of 9 mg/kg, each animal was placed in a 30 cm×30 cm Plexiglass cage and observed for 5 min. […] This amount of time was chosen because seizures occur very quickly after nicotine administration. Results are expressed as percentage seizure.

[3] = test system: nicotine-induced antinociception; test: Blockade of nicotine-induced antinociception, tail-flick test; format: in vivo, mice; conditions: blocking antinociception of nicotine 2.5 mg/kg, mice, systemic administration
Description: Anitinociception. The tail-flick method of D'Amour and Smith (1941) as modified by Dewey et al. (1970) was used. A control response (2-4 s) was determined for each animal before treatment, and a test latency was determined after drug administration. To minimize tissue damage, a maximum latency of 10 s was imposed. Antinociceptive response was calculated as percent maximum possible effect (% MPE), where % MPE=[((test-control)/(10-control))×100], Groups of 8 to 12 animals were used for each dose and for each treatment. Mice were tested 5 min after nicotine administration for the dose-response evaluation. Antagonism studies were carried out by pretreating the mice s.c. with either saline or various drugs at different times before nicotine. The animals were tested 5 min after administration of nicotine.
as §1

[4] = test system: nicotine-induced hypothermia; test: Blockade of nicotine-induced hypothermia (body temperature); format: in vivo, mice; conditions: @ 32 μmol/hg
Description: Body Temperature. Rectal temperature was measured by a thermistor probe (inserted 24 mm) and digital thermometer (Yellow Springs Instrument Co., Yellow Springs, Ohio). Readings were taken just before and at 30 min after the s.c. injection of nicotine. For antagonism studies, mice were pretreated with either saline or various drugs 10 min before nicotine. The difference in rectal temperature before and after treatment was calculated for each mouse. The ambient temperature of the laboratory varied from 21 to 24° C. from day to day.
as §1

[5] = test system: discriminative stimulus effect of nicotine; test: Nicotine drug discrimination; format: in vivo; conditions: rats
Description: Rats were individually housed in a temperature-controlled environment and were maintained on a diet (Agway Rodent Chow) that restricted their body weight to approximately 85% of their free feeding weight. Water was available ad libitum in the home cages. A two-lever operant drug nation paradigm (VI 15) was carried out in eight operant chambers (4 Lafayette model 80001 and 4 BRS/LVIE model s 002). Reinforcement was a Bioserv 45-mg precision dustless pellet. Data were collected automatically by two Commodore 64 microcomputers.
Rats were placed in an operant chamber 5 min after injections. […] Animals were required to meet a criterion of three successive days of 80% or greater correct-lever responding before testing was initiated. Injections were given 5 min before placing the animal in the operant chamber. The schedule of injections, was determined using a Latin Square design. Dose-response curves were determined for nicotine 5 min after s.c. injections.

## COC(=O)[C@H]1[C@@H](OC(=O)c2ccccc2)C[C@@H]2CC[C@H]1N2C [Cocaine]
[1]
  Performance on the rotarod test, by itself: did not significantly alter performance
[2]; cocaine 10 mg/kg pretreatment, nicotine 9 mg/kg
  % Seizures (Mean): 83.3%
[2]; cocaine 20 mg/kg pretreatment, nicotine 9 mg/kg, P < .05 from saline/nicotine
  % Seizures (Mean): 50^c %
[2]; cocaine 30 mg/kg pretreatment, nicotine 9 mg/kg, P < .05 from saline/nicotine
  % Seizures (Mean): 16^c %
[2]; mice, estimated
  AD50, antagonism of nicotine-induced seizures: 50 µmol/kg
[2]; saline pretreatment, cocaine 20 mg/kg challenge
  % Seizures (Mean): 0%
[3]
  AD50 Tail-Flick: 3.2 μmol/hg
[4]
  Hypothermia, % blockade @ dose: 20% @ 32
[5]; cocaine 10 mg/kg pretreatment, nicotine 0.4 mg/kg
  Drug discrimination % Test (Mean ± SE): 69 ± 8%
[5]; saline pretreatment, cocaine 10 mg/kg
  Drug discrimination % Test (Mean ± SE): 17 ± 7%
